For this assay, the target named is DNA primase DnaG (Escherichia coli) (UniProt P0ABS5). Kind of assay: Inhibition of Escherichia coli DNA primase after 1 hr by [3H]rNTPs incorporation assay.
Chain of DNA primase DnaG (Escherichia coli) (P0ABS5 whole entry, looked up): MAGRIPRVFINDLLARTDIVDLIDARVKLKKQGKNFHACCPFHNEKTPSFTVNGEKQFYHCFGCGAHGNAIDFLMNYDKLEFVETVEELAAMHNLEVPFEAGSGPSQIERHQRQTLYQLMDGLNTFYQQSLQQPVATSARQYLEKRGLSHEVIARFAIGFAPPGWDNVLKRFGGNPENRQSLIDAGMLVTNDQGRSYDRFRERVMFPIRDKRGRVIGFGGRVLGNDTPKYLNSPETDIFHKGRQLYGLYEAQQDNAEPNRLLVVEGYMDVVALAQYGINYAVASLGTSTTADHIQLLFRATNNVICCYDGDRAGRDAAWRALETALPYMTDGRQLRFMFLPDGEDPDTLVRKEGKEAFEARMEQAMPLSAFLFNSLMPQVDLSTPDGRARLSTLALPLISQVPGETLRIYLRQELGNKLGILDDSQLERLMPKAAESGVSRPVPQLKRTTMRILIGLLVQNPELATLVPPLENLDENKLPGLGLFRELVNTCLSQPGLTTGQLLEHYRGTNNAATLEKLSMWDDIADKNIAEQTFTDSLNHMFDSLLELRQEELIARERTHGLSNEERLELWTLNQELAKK

With `C[C@H]1CCCC[C@H]2C(=O)C=C[C@H](O)[C@@H]2CC(=O)O1` [(4S,8aR,12S,12aR)-12-hydroxy-4-methyl-4,5,6,7,8,8a-hexahydro-1H-benzo[d]oxecine-2,9(12H,12aH)-dione], the EC50 (commonly the concentration giving half of the maximal effect) amounted to 70 µM.

The record behind these values is BindingDB's records for doi:10.1021/np0302302 (Schering-Plough Research Institute, 2003).
